# From PubChem BioAssay AID330 (DTP/NCI, 2004)
# Inconclusive results and toxic doses are left out.
# Test system: P388 leukemia ip, CD2F1 mice, survival T/C
# Experiment: NCI In Vivo Anticancer Drug Screen. Data for tumor model P388 Leukemia (intraperitoneal) in CD2F1 (CDF1) mice
# Settings: endpoint: median survival time, higher = longer survival
# Summary of the method: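 Mice carrying the transplanted tumor received test compound or vehicle. Survival was recorded in each group, and the value is the treated-group measurement divided by that of the vehicle-treated control group.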
# [1] = dose: 50.0 mg/kg/injection, schedule: Q01DX005 (ip), vehicle: saline with Tween-80
# [2] = dose: 100.0 mg/kg/injection, schedule: Q01DX005 (ip), vehicle: saline with Tween-80
# [3] = dose: 200.0 mg/kg/injection, schedule: Q01DX005 (ip), vehicle: saline with Tween-80
# [4] = dose: 50.0 mg/kg/injection, schedule: Q01DX009 (ip), vehicle: suspension in saline
# [5] = dose: 100.0 mg/kg/injection, schedule: Q01DX009 (ip), vehicle: suspension in saline
# [6] = dose: 200.0 mg/kg/injection, schedule: Q01DX009 (ip), vehicle: suspension in saline
# [7] = dose: 25.0 mg/kg/injection, schedule: Q01DX009 (ip), vehicle: saline with Tween-80
smiles,measurement,setting,value
COc1ccc(NC(=S)NC2C(OC(C)=O)OC(COC(C)=O)C(OC(C)=O)C2OC(C)=O)cc1 (stereo unspecified),T/C,[1],92 % of control
same,T/C,[2],92 % of control
same,T/C,[3],89 % of control
COCNC(=O)N=C1N(COC)COCN1COC,T/C,"dose: 100.0 mg/kg/injection, schedule: Q01DX001 (ip), vehicle: saline with Tween-80",109 % of control
same,T/C,"dose: 200.0 mg/kg/injection, schedule: Q01DX001 (ip), vehicle: saline with Tween-80",106 % of control
same,T/C,"dose: 400.0 mg/kg/injection, schedule: Q01DX001 (ip), vehicle: saline with Tween-80",100 % of control
Cc1c(C)[n+](=O)c2ccc(C=O)cc2n1[O-],T/C,[4],97 % of control
same,T/C,[5],94 % of control
same,T/C,[6],94 % of control
CC(=O)Nc1ccc(C(=O)C=O)cc1,T/C,"dose: 100.0 mg/kg/injection, schedule: Q01DX009 (ip), vehicle: saline with Tween-80",119 % of control
COc1cc(C(c2cc3c(cc2OC(C)=O)OCO3)C(C(C)=O)C(C)=O)cc(OC)c1OC(C)=O (stereo unspecified),T/C,"dose: 60.0 mg/kg/injection, schedule: Q01DX005 (ip), vehicle: saline with Tween-80",90 % of control
same,T/C,"dose: 120.0 mg/kg/injection, schedule: Q01DX005 (ip), vehicle: saline with Tween-80",96 % of control
C=C1C(=O)C23C(O)C1CCC2C12COC3(O)C(O)C1C(C)(C)CCC2OC(C)=O (stereo unspecified),T/C,"dose: 10.0 mg/kg/injection, schedule: Q01DX009 (ip), vehicle: saline with Tween-80",117 % of control
same,T/C,"dose: 20.0 mg/kg/injection, schedule: Q01DX009 (ip), vehicle: saline with Tween-80",117 % of control
same,T/C,[7],110 % of control
NC(=S)N/N=C/c1cc([N+](=O)[O-])ccc1Cl,T/C,[4],94 % of control
same,T/C,[5],92 % of control
same,T/C,[6],94 % of control
C/C=C(/C)C(=O)OC1CC(C)=C2C(=O)C=C(C)C2C2OC(=O)C(C)(OC(=O)/C(C)=C\C)C12 (stereo unspecified),T/C,"dose: 4.0 mg/kg/injection, schedule: Q01DX009 (ip), vehicle: Klucel (hydroxypropylcellulose) (HPC)",102 % of control
same,T/C,"dose: 8.0 mg/kg/injection, schedule: Q01DX009 (ip), vehicle: Klucel (hydroxypropylcellulose) (HPC)",102 % of control
same,T/C,"dose: 16.0 mg/kg/injection, schedule: Q01DX009 (ip), vehicle: Klucel (hydroxypropylcellulose) (HPC)",96 % of control
same,T/C,"dose: 32.0 mg/kg/injection, schedule: Q01DX009 (ip), vehicle: Klucel (hydroxypropylcellulose) (HPC)",93 % of control
COc1cc2c(cc1OC)C(C#N)C2 (stereo unspecified),T/C,"dose: 0.78 mg/kg/injection, schedule: Q01DX009 (ip), vehicle: saline with Tween-80",100 % of control
same,T/C,"dose: 1.56 mg/kg/injection, schedule: Q01DX009 (ip), vehicle: saline with Tween-80",97 % of control
same,T/C,"dose: 3.12 mg/kg/injection, schedule: Q01DX009 (ip), vehicle: saline with Tween-80",102 % of control
same,T/C,"dose: 6.25 mg/kg/injection, schedule: Q01DX009 (ip), vehicle: saline with Tween-80",102 % of control
CCCN1COC(OCC)C(C)(C)C1 (stereo unspecified),T/C,[7],110 % of control
same,T/C,"dose: 200.0 mg/kg/injection, schedule: Q01DX009 (ip), vehicle: saline with Tween-80",93 % of control
COC(=O)C1c2ccccc2CC(=O)N1NC(=O)c1ccccc1 (stereo unspecified),T/C,"dose: 50.0 mg/kg/injection, schedule: Q01DX009 (ip), vehicle: Klucel (hydroxypropylcellulose) (HPC)",98 % of control
same,T/C,"dose: 100.0 mg/kg/injection, schedule: Q01DX009 (ip), vehicle: Klucel (hydroxypropylcellulose) (HPC)",94 % of control
O=C(O)CC1OCC=C2CN3CCC45c6ccccc6NC4C1C2CC35 (stereo unspecified),T/C,"dose: 0.93 mg/kg/injection, schedule: Q01DX005 (ip), vehicle: Klucel (hydroxypropylcellulose) (HPC)",100 % of control
same,T/C,"dose: 1.87 mg/kg/injection, schedule: Q01DX005 (ip), vehicle: Klucel (hydroxypropylcellulose) (HPC)",98 % of control
same,T/C,"dose: 7.5 mg/kg/injection, schedule: Q01DX005 (ip), vehicle: saline with Tween-80",100 % of control
same,T/C,"dose: 15.0 mg/kg/injection, schedule: Q01DX005 (ip), vehicle: saline with Tween-80",100 % of control
same,T/C,"dose: 30.0 mg/kg/injection, schedule: Q01DX005 (ip), vehicle: saline with Tween-80",100 % of control
C1CC[N+](=c2nc(N3CCOCC3)ss2)C1,T/C,"dose: 50.0 mg/kg/injection, schedule: Q04DX002 (ip), vehicle: saline with Tween-80",100 % of control
same,T/C,"dose: 100.0 mg/kg/injection, schedule: Q04DX002 (ip), vehicle: saline with Tween-80",99 % of control
same,T/C,"dose: 200.0 mg/kg/injection, schedule: Q04DX002 (ip), vehicle: saline with Tween-80",99 % of control
COc1ccc(C2CC(C)(N3CCCC3)Oc3cc4c(cc32)OCO4)c(OC)c1 (stereo unspecified),T/C,[1],99 % of control
same,T/C,[2],96 % of control
same,T/C,[3],86 % of control
